Target: α-synuclein fibrils (Homo sapiens, UniProt P37840)
Assay: Competitive radioligand binding with [^3H]BF2846 on α-synuclein fibrils
Conditions: [^3H]BF2846, α-synuclein fibrils; mean + Sd, n = 3; read-out: α-syn Ki
Procedure: Competition binding assays were performed with [^3H]BF2846 and [^3H]PIB to measure affinity to Asyn and Aβ. […]

Compound	Ki
COc1ccc(NC(=O)c2cnc(N3CCN(c4cccnc4)CC3)nc2N)cc1 [Compound 118, 4-Amino-N-(4-methoxyphenyl)-2-(4-(pyridin-3-yl)piperazin-1-yl)pyrimidine-5-carboxamide]	142 nM
COc1ccc(NC(=O)c2cnc(N3CC4CCC(C3)N4c3cc4ccccc4cn3)nc2N)cc1 [Compound 21, 4-Amino-2-(8-(isoquinolin-3-yl)-3,8-diazabicyclo[3.2.1]octan-3-yl)-N-(4-methoxyphenyl)pyrimidine-5-carboxamide]	255 nM
CCOC(=O)c1cnc(N2CCN(c3ccc4ccccc4n3)CC2)nc1N [Compound 15, Ethyl 4-amino-2-(4-(quinolin-2-yl)piperazin-1-yl)pyrimidine-5-carboxylate]	10.8 nM
COc1ccc(C(=O)Nc2ccc(N3CCN(c4ccccn4)CC3)cn2)cc1 [Compound 109, 4-methoxy-N-(5-(4-(pyridin-2-yl)piperazin-1-yl)pyridin-2-yl)benzamide]	5 ± 0.34 nM
COc1ccc(C(=O)Nc2ccc(N3C4CCC3CN(c3ccccn3)C4)cn2)cc1 [Compound 110, 4-methoxy-N-(5-(3-(pyridin-2-yl)-3,8-diazabicyclo[3.2.1]octan-8-yl)pyridin-2-yl)benzamide]	44.1 ± 32 nM
Cc1cnc(N2CCN(c3ccccn3)CC2)nc1N [Compound 39, 5-Methyl-2-(4-(pyridin-2-yl)piperazin-1-yl)pyrimidin-4-amine]	84.1 nM
COc1ccc(NC(=O)c2cnc(N3CC4CCC(C3)N4c3cnc4ccccc4c3)nc2N)cc1 [Compound 126, 4-Amino-N-(4-methoxyphenyl)-2-(8-(quinolin-3-yl)-3,8-diazabicyclo[3.2.1]octan-3-yl)pyrimidine-5-carboxamide]	522 nM
COc1ccc(NC(=O)c2cnc(N3CCN(c4nccs4)CC3)nc2N)cc1 [Compound 124, 4-Amino-N-(4-methoxyphenyl)-2-(4-(thiazol-2-yl)piperazin-1-yl)pyrimidine-5-carboxamide]	29.9 nM
CCOC(=O)c1cnc(N2CCN(c3ncccn3)CC2)nc1N [Compound 119, Ethyl 4-amino-2-(4-(pyrimidin-2-yl)piperazin-1-yl)pyrimidine-5-carboxylate]	19.5 nM
Nc1nc(N2CCN(c3ccccn3)CC2)ncc1C(=O)Nc1ccc(OC[C@@H](O)CF)cc1 [Compound 136, (R)-4-amino-N-(4-(3-fluoro-2-hydroxypropoxy)phenyl)-2-(4-(pyridin-2-yl)piperazin-1-yl)pyrimidine-5-carboxamide]	24.8 nM
CCOC(=O)c1cnc(N2CCN(c3ccc(OC)cc3)CC2)nc1N [Compound 17, Ethyl 4-amino-2-(4-(4-methoxyphenyl)piperazin-1-yl)pyrimidine-5-carboxylate]	12.8 nM
CCOC(=O)c1cnc(N2CCCN(c3cnc4ccccc4c3)CC2)nc1N [Compound 8, Ethyl 4-amino-2-(4-(quinolin-3-yl)-1,4-diazepan-1-yl)pyrimidine-5-carboxylate]	15.2 nM
COc1ccc(C(=O)Nc2ccc(N3C4CCC3CN(c3cnc5ccccc5n3)C4)cc2)cc1 [Compound 105, 4-methoxy-N-(4-(3-(quinoxalin-2-yl)-3,8-diazabicyclo[3.2.1]octan-8-yl)phenyl)benzamide]	47.6 ± 14 nM
Nc1nc(N2CCN(c3ccccn3)CC2)ncc1C(=O)Nc1ccc(F)cc1 [Compound 34, 4-Amino-N-(4-fluorophenyl)-2-(4-(pyridin-2-yl)piperazin-1-yl)pyrimidine-5-carboxamide]	10 nM
CCOC(=O)c1cnc(N2CCN(c3nc4ccccc4o3)CC2)nc1N [Compound 10, Ethyl 4-amino-2-(4-(benzo[d]oxazol-2-yl)piperazin-1-yl)pyrimidine-5-carboxylate]	2.5 nM
CCOC(=O)c1cnc(N2CCN(c3nccs3)CC2)nc1N [Compound 123, Ethyl 4-amino-2-(4-(thiazol-2-yl)piperazin-1-yl)pyrimidine-5-carboxylate]	51.1 nM
O=C(Nc1ccc(N2C3CCC2CN(c2ccccn2)C3)cc1)c1ccc(OCCF)cc1 [Compound 116, 4-(2-fluoroethoxy)-N-(4-(3-(pyridin-2-yl)-3,8-diazabicyclo[3.2.1]octan-8-yl)phenyl)benzamide]	12.7 ± 2.3 nM
COc1ccc(C(=O)Nc2ccc(N3CCCN(c4ccccn4)CC3)cc2)cc1 [Compound 107, 4-methoxy-N-(4-(4-(pyridin-2-yl)-1,4-diazepan-1-yl)phenyl)benzamide]	8.7 ± 0.6 nM
COc1ccc(NC(=O)c2cnc(N3CCN(c4ccc(OC)cc4)CC3)nc2N)cc1 [Compound 33, 4-Amino-N-(4-methoxyphenyl)-2-(4-(4-methoxyphenyl)piperazin-1-yl)pyrimidine-5-carboxamide]	44.5 nM
CCOC(=O)c1cnc(N2CC3CCC(C2)N3c2cc3ccccc3cn2)nc1N [Compound 5, Ethyl 4-amino-2-(8-(isoquinolin-3-yl)-3,8-diazabicyclo[3.2.1]octan-3-yl)pyrimidine-5-carboxylate]	58.5 nM
COc1ccc(NC(=O)c2cnc(N3CCN(c4nc5ccccc5o4)CC3)nc2N)cc1 [Compound 26, 4-Amino-2-(4-(benzo[d]oxazol-2-yl)piperazin-1-yl)-N-(4-methoxyphenyl)pyrimidine-5-carboxamide]	6 nM

Compound	Ki
CCOC(=O)c1cnc(N2CCN(c3nc4ccccc4s3)CC2)nc1N [Compound 11, Ethyl 4-amino-2-(4-(benzo[d]thiazol-2-yl)piperazin-1-yl)pyrimidine-5-carboxylate]	12.9 nM
COc1ccc(C(=O)Nc2ccc(N3CC(OC)C3)cc2)cc1 [Compound 115, 4-methoxy-N-(4-(3-methoxyazetidin-1-yl)phenyl)benzamide]	28.6 ± 33 nM
COc1ccc(NC(=O)c2cnc(N3CCN(c4nc5ccccc5s4)CC3)nc2N)cc1 [Compound 27, 4-Amino-2-(4-(benzo[d]thiazol-2-yl)piperazin-1-yl)-N-(4-methoxyphenyl)pyrimidine-5-carboxamide]	1.1 nM
COc1ccc(C(=O)Nc2ccc(N3CCC4(CC3)CCN(c3ccccn3)C4)cc2)cc1 [Compound 101, 4-methoxy-N-(4-(2-(pyridin-2-yl)-2,8-diazaspiro[4.5]decan-8-yl)phenyl)benzamide]	21.9 ± 9.7 nM
CCOC(=O)c1cnc(N2CCN(c3cnc4ccccc4c3)CC2)nc1N [Compound 14, Ethyl 4-amino-2-(4-(quinolin-3-yl)piperazin-1-yl)pyrimidine-5-carboxylate]	3.1 nM
CCOC(=O)c1cnc(N2C3CCC2CN(c2cnc4ccccc4c2)C3)nc1N [Compound 3, Ethyl 4-amino-2-(3-(quinolin-3-yl)-3,8-diazabicyclo[3.2.1]octan-8-yl)pyrimidine-5-carboxylate]	23.3 nM
CCOC(=O)c1cnc(N2CCN(c3ccccn3)CC2)nc1N [Compound 9, Ethyl 4-amino-2-(4-(pyridin-2-yl)piperazin-1-yl)pyrimidine-5-carboxylate]	4 nM
CCOC(=O)c1cnc(N2CCN(c3cc4ccccc4cn3)CC2)nc1N [Compound 13, Ethyl 4-amino-2-(4-(isoquinolin-3-yl)piperazin-1-yl)pyrimidine-5-carboxylate]	12.1 nM
N#Cc1cnc(N2CCN(c3ccccn3)CC2)nc1N [Compound 41, 4-Amino-2-(4-(pyridin-2-yl)piperazin-1-yl)pyrimidine-5-carbonitrile]	7.5 nM
CCOC(=O)c1cnc(N2CC3CCC(C2)N3c2ccccn2)nc1N [Compound 4, Ethyl 4-amino-2-(8-(pyridin-2-yl)-3,8-diazabicyclo[3.2.1]octan-3-yl)pyrimidine-5-carboxylate]	5.5 nM
CCOC(=O)c1cnc(N2C3CCC2CN(c2ccccn2)C3)nc1N [Compound 1, Ethyl 4-amino-2-(3-(pyridin-2-yl)-3,8-diazabicyclo[3.2.1]octan-8-yl)pyrimidine-5-carboxylate]	11.6 nM
CCOC(=O)c1cnc(N2CCCN(c3ccccn3)CC2)nc1N [Compound 7, Ethyl 4-amino-2-(4-(pyridin-2-yl)-1,4-diazepan-1-yl)pyrimidine-5-carboxylate]	8.9 nM
COc1ccc(NC(=O)c2cnc(Cl)nc2)cc1 [Compound 43, 2-Chloro-N-(4-methoxyphenyl)pyrimidine-5-carboxamide]	6.5 nM
Nc1nc(N2CCN(c3ccccn3)CC2)ncc1C(=O)Nc1ccc(OC[C@H](O)CF)cc1 [Compound 135, (S)-4-amino-N-(4-(3-fluoro-2-hydroxypropoxy)phenyl)-2-(4-(pyridin-2-yl)piperazin-1-yl)pyrimidine-5-carboxamide]	16.9 nM
COc1ccc(C(=O)Nc2ccc(N3C4CCC3CN(c3ccccn3)C4)cc2)cc1 [Compound 103, 4-methoxy-N-(4-(3-(pyridin-2-yl)-3,8-diazabicyclo[3.2.1]octan-8-yl)phenyl)benzamide]	6.1 ± 2.1 nM
CCOC(=O)c1cnc(N2CC3CCC(C2)N3c2cnc3ccccc3c2)nc1N [Compound 6, Ethyl 4-amino-2-(8-(quinolin-3-yl)-3,8-diazabicyclo[3.2.1]octan-3-yl)pyrimidine-5-carboxylate]	9.9 nM
CCOC(=O)c1cnc(N2CCN(c3cnc4ccccc4n3)CC2)nc1N [Compound 16, Ethyl 4-amino-2-(4-(quinoxalin-2-yl)piperazin-1-yl)pyrimidine-5-carboxylate]	2.4 nM
COc1ccc(NC(=O)c2cnc(N3C4CCC3CN(c3cc5ccccc5cn3)C4)nc2N)cc1 [Compound 19, 4-Amino-2-(3-(isoquinolin-3-yl)-3,8-diazabicyclo[3.2.1]octan-8-yl)-N-(4-methoxyphenyl)pyrimidine-5-carboxamide]	45 nM
Nc1nc(N2CCN(c3ccccn3)CC2)ncc1C(=O)OCCO [Compound 37, 2-Hydroxyethyl 4-amino-2-(4-(pyridin-2-yl)piperazin-1-yl)pyrimidine-5-carboxylate]	41.4 nM
Nc1nc(N2CCN(c3nc4ccccc4o3)CC2)ncc1C(=O)Nc1ccc(OCCF)cc1 [Compound 133, 4-Amino-2-(4-(benzo[d]oxazol-2-yl)piperazin-1-yl)-N-(4-(2-fluoroethoxy)phenyl)pyrimidine-5-carboxamide]	1.26 nM

— patent US20260317337A1, “HETEROCYCLIC COMPOUNDS FOR IMAGING AGGREGATED ALPHA SYNUCLEIN IN THE SYNUCLEINOPATHIES” (THE TRUSTEES OF THE UNIVERSITY OF PENNSYLVANIA, priority 2023, published 2026)
